Results from patent publication US12594277B2, “Macrocyclic ULK1/2 inhibitors” (SALK INSTITUTE FOR BIOLOGICAL STUDIES, priority 2020, dated 2026).

How the values were obtained:
[1] = molecular target: T1, recombinant human ULK1 protein (1-649) (Homo sapiens, UniProt O75385); experiment: ULK1 inhibition assay (ADP-Glo); type: biochemical; conditions: 2 ug/mL ULK1, 80 ug/mL myelin basic protein, 25 uM ATP, assessed after one hour
T1 construct: recombinant human ULK1 protein (1-649, SignalChem #U01-11G); purchased SignalChem U01-11G
T1 sequence (O75385 1-649): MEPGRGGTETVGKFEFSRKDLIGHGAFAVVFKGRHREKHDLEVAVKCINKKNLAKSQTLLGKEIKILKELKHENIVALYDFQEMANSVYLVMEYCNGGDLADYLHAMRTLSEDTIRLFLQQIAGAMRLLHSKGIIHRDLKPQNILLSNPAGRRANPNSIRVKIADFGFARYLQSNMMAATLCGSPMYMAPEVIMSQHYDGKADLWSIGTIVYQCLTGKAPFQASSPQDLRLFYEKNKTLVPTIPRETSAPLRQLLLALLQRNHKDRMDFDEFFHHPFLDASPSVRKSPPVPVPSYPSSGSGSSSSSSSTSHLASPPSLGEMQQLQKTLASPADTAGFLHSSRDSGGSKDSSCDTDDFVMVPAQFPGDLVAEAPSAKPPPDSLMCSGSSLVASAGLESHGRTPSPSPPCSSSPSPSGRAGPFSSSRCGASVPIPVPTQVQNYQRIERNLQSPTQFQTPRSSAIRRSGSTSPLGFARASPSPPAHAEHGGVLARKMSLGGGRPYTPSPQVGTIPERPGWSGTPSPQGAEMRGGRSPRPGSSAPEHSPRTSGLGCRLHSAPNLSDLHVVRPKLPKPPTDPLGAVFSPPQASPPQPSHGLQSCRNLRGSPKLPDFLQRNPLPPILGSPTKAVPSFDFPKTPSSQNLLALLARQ
Procedure: IC50s measured by ADP-Glo assay are represented nM, with A representing IC50<20 nM, B representing IC50>20 nM. NT indicates the compound was not tested. ULK1 inhibition assays were performed in a 5 uL reaction volume containing 2 ug/mL recombinant human ULK1 protein (1-649, SignalChem #U01-11G) and 80 ug/mL myelin basic protein (MBP, Sigma-Aldrich #M1891) in the presence of 25 uM ATP (Sigma-Aldrich A7699). ULK 1 inhibition was assessed after one hour. Compounds were tested in triplicate in a 16-dose IC50 mode with 3-fold serial dilution and a starting dose of 30 uM. Staurosporine, a non-selective protein kinase inhibitor, was used in the assay as a positive control. Three separate experiments were carried out.

[2] = molecular target: T2, NanoLuc-ULK1 fusion in HEK293T cells (Homo sapiens, UniProt O75385); experiment: ULK1 NanoBRET assay; type: cell-based; conditions: HEK293T transfected with NanoLuc-ULK1 Fusion Vector, Tracer K-5, 2 h incubation
T2 construct: host or cells: HEK293T
T2 sequence (O75385 1-1050): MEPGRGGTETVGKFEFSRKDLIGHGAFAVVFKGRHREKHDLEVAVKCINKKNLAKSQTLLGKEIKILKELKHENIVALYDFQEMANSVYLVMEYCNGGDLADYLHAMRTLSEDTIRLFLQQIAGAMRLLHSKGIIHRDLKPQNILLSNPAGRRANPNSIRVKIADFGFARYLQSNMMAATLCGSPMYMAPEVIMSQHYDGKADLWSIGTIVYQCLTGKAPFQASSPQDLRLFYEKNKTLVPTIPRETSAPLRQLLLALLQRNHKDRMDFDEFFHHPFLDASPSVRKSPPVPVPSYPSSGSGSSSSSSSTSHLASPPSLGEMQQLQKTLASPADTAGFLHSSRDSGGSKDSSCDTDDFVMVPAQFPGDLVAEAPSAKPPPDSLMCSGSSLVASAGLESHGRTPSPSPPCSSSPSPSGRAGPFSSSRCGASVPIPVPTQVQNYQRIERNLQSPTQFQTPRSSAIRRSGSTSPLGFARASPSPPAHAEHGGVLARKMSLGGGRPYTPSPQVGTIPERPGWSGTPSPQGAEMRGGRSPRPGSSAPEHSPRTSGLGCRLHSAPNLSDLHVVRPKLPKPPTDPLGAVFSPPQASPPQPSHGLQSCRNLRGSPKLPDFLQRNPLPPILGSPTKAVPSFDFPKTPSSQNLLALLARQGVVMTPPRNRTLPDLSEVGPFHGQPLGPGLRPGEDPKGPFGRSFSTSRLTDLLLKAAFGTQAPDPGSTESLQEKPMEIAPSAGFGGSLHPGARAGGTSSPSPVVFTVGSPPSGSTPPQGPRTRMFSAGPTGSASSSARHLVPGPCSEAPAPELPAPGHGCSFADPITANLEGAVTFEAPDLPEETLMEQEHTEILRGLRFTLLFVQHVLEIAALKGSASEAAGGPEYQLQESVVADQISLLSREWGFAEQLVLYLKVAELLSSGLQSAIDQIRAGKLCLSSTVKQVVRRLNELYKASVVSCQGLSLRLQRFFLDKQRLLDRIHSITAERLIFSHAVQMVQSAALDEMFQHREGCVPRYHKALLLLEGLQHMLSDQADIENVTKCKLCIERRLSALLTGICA
Procedure: IC50s were also measured by ULK1 NanoBRET assay according to the following protocol: Human embryonic kidney cells (HEK293T) were transfected with NanoLuc®-ULK1 Fusion Vector (Promega #NV2211) using jetPRIME transfection reagent (Polyplus Transfection #114-15). Following 24 h, cells were trypsinized and resuspended in Opti-MEM® I (1×), Reduced Serum Medium (Gibco, #11058-021). Approximately, 7,000 cells per well (in 34 μL total volume) were replated into non-binding surface 384 well plates. Complete NanoBRET 20× Tracer K-5 reagent was prepared according to the manufacturer's directions and 2 μL were added to each well of the 384 plate (assay plate). The assay plate was mixed on an orbital shaker for 15 seconds at 700 rpm. Compounds were serially diluted at 200× final concentration in […], then diluted to 10× final concentration in assay media (Opti-MEM® I, Reduced Serum Medium). Next, 4 μL 10× test compounds were added to each well of the assay plate, followed by mixing at 700 rpm for 15 seconds. The assay plate was incubated for 2 h in a 37 C incubator with […] and then equilibrated to RT for 15 min. The 3× Complete Substrate plus Inhibitor Solution was prepared according to the manufacturer's directions with a concentration of Extracellular NanoLuc® Inhibitor of 60 μM to be used at a working concentration of 20 μM. The 3× Complete Substrate plus Inhibitor Solution was mixed and 20 μL per well was added to the assay plate and incubated at RT for 2-3 min. Donor emission wavelength (450 nm) and acceptor emission wavelength (610 nm) were measured using an assay compatible luminometer (see manufacturer's specifications).

Compound	IC50 [1] [nM]	IC50 [2] [nM]
CNC(=O)c1cc2ccc1Nc1nc(ncc1C(F)(F)F)Nc1ccc(OC)c(c1)OC/C=C/CCO2 [Compound 9, (E/Z)-1^4-Methoxy-N-methyl-3^5-(trifluoromethyl)-6,12-dioxa-2,4-diaza-3(2,4)-pyrimidina-1(1,3),5(1,4)-dibenzenacyclododecaphan-9-ene-5^2-carboxamide]	< 20	< 1000
CNC(=O)c1cc2ccc1Nc1nc(ncc1C(F)(F)F)Nc1ccc(OC)c(c1)OCCCCCCO2 [Compound 20, 1^4-Methoxy-N-methyl-3^5-(trifluoromethyl)-6,13-dioxa-2,4-diaza-3(2,4)-pyrimidina-1(1,3),5 (1,4)-dibenzenacyclotridecaphane-52-carboxamide]	< 20	> 1000
CNC(=O)c1cc2ccc1Nc1nc(ncc1C(F)(F)F)Nc1ccc(OC)c(c1)OC/C=C/CCCO2 [Compound 18, (E)-1^4-methoxy-N-methyl-3^5-(trifluoromethyl)-6,13-dioxa-2,4-diaza-3(2,4)-pyrimidina-1(1,3),5(1,4)-dibenzenacyclotridecaphan-10-ene-5^2-carboxamide]	< 20	> 1000
CNC(=O)c1ccc2cc1Nc1nc(ncc1C(F)(F)F)Nc1ccc(OC)c(c1)OC/C=C\CCCO2 [Compound 12, (E)-1^4-methoxy-N-methyl-35-(trifluoromethyl)-6,13-dioxa-2,4-diaza-3(2,4)-pyrimidina-1,5(1,3)-dibenzenacyclotridecaphan-10-ene-5^6-carboxamide]	> 20	> 1000
CNC(=O)c1cc2ccc1Nc1nc(ncc1C(F)(F)F)Nc1ccc(OC)c(c1)OCCCCCO2 [Compound 10, 1^4-Methoxy-N-methyl-3^5-(trifluoromethyl)-6,12-dioxa-2,4-diaza-3(2,4)-pyrimidina-1(1,3), 5(1,4)-dibenzenacyclododecaphane-5^2-carboxamide]	< 20	> 1000
CNC(=O)c1ccc2cc1Nc1nc(ncc1C(F)(F)F)Nc1ccc(c(OC)c1)OCCCCCCO2 [Compound 17, 5^3-Methoxy-N-methyl-3^5-(trifluoromethyl)-6,13-dioxa-2,4-diaza-3(4,2)-pyrimidina-1(1,3),5 (1,4)-dibenzenacyclotridecaphane-16-carboxamide]	> 20	> 1000
CNC(=O)c1cc2ccc1Nc1nc(ncc1C(F)(F)F)Nc1ccc(OC)c(c1)OC/C=C\CCCO2 [Compound 19, (Z)-1^4-methoxy-N-methyl-3^5-(trifluoromethyl)-6,13-dioxa-2,4-diaza-3(2,4)-pyrimidina-1(1,3),5(1,4)-dibenzenacyclotridecaphan-10-ene-5^2-carboxamide]	< 20	< 1000
CNC(=O)c1ccc2cc1Nc1nc(ncc1C(F)(F)F)Nc1ccc(OC)c(c1)OC/C=C/CCCO2 [Compound 13, (Z)-1^4-methoxy-N-methyl-35-(trifluoromethyl)-6,13-dioxa-2,4-diaza-3(2,4)-pyrimidina-1,5(1,3)-dibenzenacyclotridecaphan-10-ene-5^6-carboxamide]	> 20	> 1000
CNC(=O)c1ccc2cc1Nc1nc(ncc1C(F)(F)F)Nc1ccc(OC)c(c1)OCCCCCCO2 [Compound 14, 1^4-Methoxy-N-methyl-3^5-(trifluoromethyl)-6,13-dioxa-2,4-diaza-3(2,4)-pyrimidina-1,5(1,3)-dibenzenacyclotridecaphane-5^6-carboxamide]	> 20	> 1000
C=CCCOc1ccc(Nc2nc(Nc3ccc(OCC=C)c(OC)c3)ncc2C(F)(F)F)c(C(=O)NC)c1 [Compound 2, 2-((2-((4-(Allyloxy)-3-methoxyphenyl)amino)-5-(trifluoromethyl)pyrimidin-4-yl)amino)-5-(but-3-en-1-yloxy)-N-methylbenzamide]	> 20	–
CNC(=O)c1cc2ccc1Nc1nc(ncc1C(F)(F)F)Nc1ccc(c(OC)c1)OCCCCCCO2 [Compound 7, 1^3-Methoxy-N-methyl-3^5-(trifluoromethyl)-6,13-dioxa-2,4-diaza-3(2,4)-pyrimidina-1,5(1,4)-dibenzenacyclotridecaphane-5^2-carboxamide]	< 20	–
CNC(=O)c1cc2ccc1Nc1nc(ncc1C(F)(F)F)Nc1ccc(c(OC)c1)OC/C=C/CCO2 [Compound 3, (E)-1^3-methoxy-N-methyl-3^5-(trifluoromethyl)-6,12-dioxa-2,4-diaza-3(2,4)-pyrimidina-1,5(1,4)-dibenzenacyclododecaphan-9-ene-5^2-carboxamide]	> 20	< 1000
CNC(=O)c1ccc2cc1OCCCCCOc1ccc(cc1OC)Nc1ncc(C(F)(F)F)c(n1)N2 [Compound 25, 5^3-Methoxy-N-methyl-3^5-(trifluoromethyl)-6,12-dioxa-2,4-diaza-3(4,2)-pyrimidina-1(1,3), 5(1,4)-dibenzenacyclododecaphane-1^6-carboxamide]	> 20	> 1000
CNC(=O)c1ccc2cc1Nc1nc(ncc1C(F)(F)F)Nc1ccc(OC)c(c1)OCCCCCO2 [Compound 23, 1^4-methoxy-N-methyl-3^5-(trifluoromethyl)-6,12-dioxa-2,4-diaza-3(2,4)-pyrimidina-1,5(1,3)-dibenzenacyclododecaphane-5^6-carboxamide]	> 20	> 1000
C=CCCOc1ccc(Nc2nc(Nc3ccc(OCC=C)c(OC)c3)ncc2Br)c(C(=O)NC)c1 [Compound 11]	> 20	–
C=CCCOc1ccc(Nc2nc(Nc3ccc(OC)c(OCC=C)c3)ncc2C(F)(F)F)c(C(=O)NC)c1 [Compound 8, 2-((2-((3-(Allyloxy)-4-methoxyphenyl)amino)-5-(trifluoromethyl)pyrimidin-4-yl)amino)-5-(but-3-en-1-yloxy)-N-methylbenzamide]	< 20	–
